Consider 13 compounds from US20240018123A1, “COMPOUND FOR INHIBITING OR DISINTEGRATING ANDROGEN RECEPTOR, AND PHARMACEUTICAL USE THEREOF” (KOREA RESEARCH INSTITUTE OF CHEMICAL TECHNOLOGY, priority 2020, published 2024).

Read-outs that look alike come from different tables or passages of the source.

Data set [1] addresses T1, Androgen receptor (AR) (Homo sapiens, UniProt P10275, T878A).
T1 construct: 5.5×10^5 LNCap cells were injected into each well of a 6-well plate; endogenous in cells; host or cells: LNCaP
T1 sequence (P10275 1-920 T878A): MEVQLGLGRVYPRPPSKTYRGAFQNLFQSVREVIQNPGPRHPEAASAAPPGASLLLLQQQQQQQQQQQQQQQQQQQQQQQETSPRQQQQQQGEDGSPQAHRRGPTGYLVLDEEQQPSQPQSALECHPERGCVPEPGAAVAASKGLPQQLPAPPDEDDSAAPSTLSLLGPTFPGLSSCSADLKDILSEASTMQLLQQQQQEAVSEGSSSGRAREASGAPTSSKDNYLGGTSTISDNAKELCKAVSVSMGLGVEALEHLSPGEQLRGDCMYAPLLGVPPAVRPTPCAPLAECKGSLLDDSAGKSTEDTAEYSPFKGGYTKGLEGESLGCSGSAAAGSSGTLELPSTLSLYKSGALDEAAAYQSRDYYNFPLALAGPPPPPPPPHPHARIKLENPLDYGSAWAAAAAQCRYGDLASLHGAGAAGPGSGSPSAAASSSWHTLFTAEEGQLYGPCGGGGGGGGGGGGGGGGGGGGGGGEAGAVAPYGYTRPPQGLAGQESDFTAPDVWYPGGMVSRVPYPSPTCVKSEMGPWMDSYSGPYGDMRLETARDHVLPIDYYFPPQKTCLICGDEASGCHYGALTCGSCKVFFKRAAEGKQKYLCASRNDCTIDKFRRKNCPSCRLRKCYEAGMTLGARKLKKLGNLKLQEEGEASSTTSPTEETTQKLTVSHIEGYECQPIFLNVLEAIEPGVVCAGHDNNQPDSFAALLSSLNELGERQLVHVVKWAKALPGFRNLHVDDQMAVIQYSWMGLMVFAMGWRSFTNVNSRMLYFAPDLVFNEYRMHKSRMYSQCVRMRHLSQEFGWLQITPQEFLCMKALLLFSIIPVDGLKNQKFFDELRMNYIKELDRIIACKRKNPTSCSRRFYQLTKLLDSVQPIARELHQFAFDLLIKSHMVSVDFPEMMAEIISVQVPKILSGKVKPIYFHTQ
Briefly: Assessment of AR proteolytic activity (Western blotting of LNCap cell lysates). It counts as cell-based. The note with it: 24 hours of treatment, Western blotting quantified with Image J; for remaining activity at 1 µM: read-out: Degradation (1 μM treated in LNCaP, % AR remaining). The procedure, abridged:
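AR degradation read by Western blot densitometry on RIPA lysates (pH 7.5, protease inhibitor cocktail). Lysates came from LNCap cells, 5.5×10^5 per well, exposed to compound for 24 hours.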

Data set [2] has as its system VCaP cells.
For data set [3], the system named is VCaP cells. The data set can be described thus: Cytotoxicity assessment (Cell-titer-glo cell viability), VCaP.
[4] abbreviates: read-out: VCaP (CC50), VCaP cells, 6 days of treatment, Cell-titer-glo, vs DMSO.
The mark [5] stands for this setting: Homo sapiens, VCaP, 144 h, read-out: VCaP (CC50, μM).

`CC1(C)C(NC(=O)c2ccc(N3CCN(C(=O)COc4ccc5nnn(C6CCC(=O)NC6=O)c(=O)c5c4)CC3)cc2)C(C)(C)C1Oc1ccc(C#N)c(Cl)c1` (centres unmarked) [Example 41, N-((1r,3r)-3-(3-chloro-4-cyanophenoxy)-2,2,4,4-tetramethylcyclobutyl)-4-(4-(2-((3-(2,6-dioxopiperidin-3-yl)-4-oxo-3,4-dihydrobenzo[d][1,2,3]triazin-6-yl)oxy)acetyl)piperazin-1-yl)benzamide]: the “Degradation (1 μM treated in LNCaP, % AR remaining)” value in data set [1] is 12.3%. The same compound yielded a CC50 in data set [2] of 20 nM.

Regarding `CC1(C)C(NC(=O)c2ccc(N3CCN(CCCOC4CCN(C(=O)CNc5ccc6nnn(C7CCC(=O)NC7=O)c(=O)c6c5)CC4)CC3)cc2)C(C)(C)C1Oc1ccc(C#N)c(Cl)c1` (centres unmarked) [Example 37, N-((1r,3r)-3-(3-chloro-4-cyanophenoxy)-2,2,4,4-tetramethylcyclobutyl)-4-(4-(3-((1-((3-(2,6-dioxopiperidin-3-yl)-4-oxo-3,4-dihydrobenzo[d][1,2,3]triazin-6-yl)glycyl)piperidin-4-yl)oxy)propyl)piperazin-1-yl)benzamide], the “Degradation (1 μM treated in LNCaP, % AR remaining)” value in data set [1] came to 14.9%. In addition, the half-maximal cytotoxic concentration (CC50) in data set [3] (setting [4]) was found to be 0.0291 µM.

On to `CC1(C)[C@H](NC(=O)c2ccc(N3CCN(C(=O)CNc4ccc5nnn(C6CCC(=O)NC6=O)c(=O)c5c4)CC3)cc2)C(C)(C)[C@H]1Oc1ccc(C#N)c(Cl)c1` (some centres unmarked) [Example 40, N-((1r,3r)-3-(3-chloro-4-cyanophenoxy)-2,2,4,4-tetramethylcyclobutyl)-4-(4-((3-(2,6-dioxopiperidin-3-yl)-4-oxo-3,4-dihydrobenzo[d][1,2,3]triazin-6-yl)glycyl)piperazin-1-yl)benzamide], for which the “Degradation (1 μM treated in LNCaP, % AR remaining)” value in data set [1] stood at 19.7%. For the same compound, the CC50 in data set [3] (setting [4]) came out at 0.0243 µM.

Take `CC1(C)C(NC(=O)c2ccc(N3CCN(CC4CCN(CCNC(=O)C5CCN(c6ccc7nnn(C8CCC(=O)NC8=O)c(=O)c7c6)CC5)CC4)CC3)cc2)C(C)(C)C1Oc1ccc(C#N)c(Cl)c1` (centres unmarked) [Example 68, N-(2-(4-((4-(4-(((1r,3r)-3-(3-chloro-4-cyanophenoxy)-2,2,4,4-tetramethylcyclobutyl)carbamoyl)phenyl)piperazin-1-yl)methyl)piperidin-1-yl)ethyl)-1-(3-(2,6-dioxopiperidin-3-yl)-4-oxo-3,4-dihydrobenzo[d][1,2,3]triazin-6-yl)piperidine-4-carboxamide]: the “Degradation (1 μM treated in LNCaP, % AR remaining)” value in data set [1] stood at 26%. Moreover, the CC50 in data set [3] (setting [4]) stood at 0.162 µM.

In the case of `CC1(C)C(NC(=O)c2ccc(N3CCN(CC4(O)CCN(C(=O)C5CCN(c6ccc7nnn(C8CCC(=O)NC8=O)c(=O)c7c6)CC5)CC4)CC3)cc2)C(C)(C)C1Oc1ccc(C#N)c(Cl)c1` (centres unmarked) [Example 55, N-((1r,3r)-3-(3-chloro-4-cyanophenoxy)-2,2,4,4-tetramethylcyclobutyl)-4-(4-((1-(1-(3-(2,6-dioxopiperidin-3-yl)-4-oxo-3,4-dihydrobenzo[d][1,2,3]triazin-6-yl)piperidine-4-carbonyl)-4-hydroxypiperidin-4-yl)methyl)piperazin-1-yl)benzamide], the “Degradation (1 μM treated in LNCaP, % AR remaining)” value in data set [1] is on record as 8.6%. In addition, the 50% cytotoxic concentration (CC50) in data set [3] (setting [4]) came out at 0.0365 µM.

`CC1(C)[C@H](NC(=O)c2ccc(N3CCN(C(=O)C4CCN(c5ccc6nnn(C7CCC(=O)NC7=O)c(=O)c6c5)CC4)CC3)cc2)C(C)(C)[C@H]1Oc1ccc(C#N)c(Cl)c1` (some centres unmarked) [Example 42, N-((1r,3r)-3-(3-chloro-4-cyanophenoxy)-2,2,4,4-tetramethylcyclobutyl)-4-(4-(1-(3-(2,6-dioxopiperidin-3-yl)-4-oxo-3,4-dihydrobenzo[d][1,2,3]triazin-6-yl)piperidine-4-carbonyl)piperazin-1-yl)benzamide]: the “Degradation (1 μM treated in LNCaP, % AR remaining)” value in data set [1] came out at 10%. The CC50 in data set [3] (setting [4]) amounted to 0.0494 µM.

In the case of `CC1(C)C(NC(=O)c2cnc(N3CCN(CC4CCN(c5ccc6nnn(C7CCC(=O)NC7=O)c(=O)c6c5)CC4)CC3)cn2)C(C)(C)C1Oc1ccc(C#N)c(Cl)c1` (centres unmarked) [Example 79, N-((1r,3r)-3-(3-chloro-4-cyanophenoxy)-2,2,4,4-tetramethylcyclobutyl)-5-(4-((1-(3-(2,6-dioxopiperidin-3-yl)-4-oxo-3,4-dihydrobenzo[d][1,2,3]triazin-6-yl)piperidin-4-yl)methyl)piperazin-1-yl)pyrazine-2-carboxamide], the “Degradation (1 μM treated in LNCaP, % AR remaining)” value in data set [1] was determined as 45%. The half-maximal cytotoxic concentration (CC50) in data set [3] (setting [4]) was found to be 0.2 µM.

For `CC1(C)[C@H](NC(=O)c2ccc(C3CCN(CC4CCN(c5ccc6nnn(C7CCC(=O)NC7=O)c(=O)c6c5)CC4)CC3)cc2)C(C)(C)[C@H]1Oc1ccc(C#N)c(Cl)c1` (some centres unmarked) [Example 50, N-((1r,3r)-3-(3-chloro-4-cyanophenoxy)-2,2,4,4-tetramethylcyclobutyl)-4-(1-((1-(3-(2,6-dioxopiperidin-3-yl)-4-oxo-3,4-dihydrobenzo[d][1,2,3]triazin-6-yl)piperidin-4-yl)methyl)piperidin-4-yl)benzamide], the remaining activity at 1 µM in data set [1] stood at 6.8%. Also, the CC50 in data set [3] (setting [5]) came out at 0.223 µM.

For the compound `CC1(C)C(NC(=O)c2ccc(N3CCN(CC4CCN(C(=O)C5CCN(c6ccc7nnn(C8CCC(=O)NC8=O)c(=O)c7c6)CC5)CC4)CC3)nc2)C(C)(C)C1Oc1ccc(C#N)c(Cl)c1` (centres unmarked) [Example 81, N-((1r,3r)-3-(3-chloro-4-cyanophenoxy)-2,2,4,4-tetramethylcyclobutyl)-6-(4-((1-(1-(3-(2,6-dioxopiperidin-3-yl)-4-oxo-3,4-dihydrobenzo[d][1,2,3]triazin-6-yl)piperidine-4-carbonyl)piperidin-4-yl)methyl)piperazin-1-yl)nicotinamide], the “Degradation (1 μM treated in LNCaP, % AR remaining)” value in data set [1] turned out to be 18%. Further, the CC50 in data set [3] (setting [4]) was determined as 0.0238 µM.

With `CC1(C)[C@H](NC(=O)c2ccc(C#CCC3CCN(C(=O)C4CCN(c5ccc6nnn(C7CCC(=O)NC7=O)c(=O)c6c5)CC4)CC3)cc2)C(C)(C)[C@H]1Oc1ccc(C#N)c(Cl)c1` (some centres unmarked) [Example 86, N-((1r,3r)-3-(3-chloro-4-cyanophenoxy)-2,2,4,4-tetramethylcyclobutyl)-4-(3-(1-(1-(3-(2,6-dioxopiperidin-3-yl)-4-oxo-3,4-dihydrobenzo[d][1,2,3]triazin-6-yl)piperidine-4-carbonyl)piperidin-4-yl)prop-1-yn-1-yl)benzamide], the “Degradation (1 μM treated in LNCaP, % AR remaining)” value in data set [1] is 20%. Further, the CC50 in data set [3] (setting [4]) was determined as 0.0349 µM.

Consider `CC1(C)[C@H](NC(=O)c2ccc(C3CCN(CC4CCN(C(=O)C5CCN(c6ccc7nnn(C8CCC(=O)NC8=O)c(=O)c7c6)CC5)CC4)CC3)cc2)C(C)(C)[C@H]1Oc1ccc(C#N)c(Cl)c1` (some centres unmarked) [Example 52, N-((1r,3r)-3-(3-chloro-4-cyanophenoxy)-2,2,4,4-tetramethylcyclobutyl)-4-(1-((1-(1-(3-(2,6-dioxopiperidin-3-yl)-4-oxo-3,4-dihydrobenzo[d][1,2,3]triazin-6-yl)piperidine-4-carbonyl)piperidin-4-yl)methyl)piperidin-4-yl)benzamide], for which the “Degradation (1 μM treated in LNCaP, % AR remaining)” value in data set [1] worked out at 32.2%. Further, the CC50 in data set [3] (setting [4]) was 0.0594 µM.

Take `CC1(C)C(NC(=O)c2ccc(N3CCN(CCCOC4CCN(C(=O)C5CCN(c6ccc7nnn(C8CCC(=O)NC8=O)c(=O)c7c6)CC5)CC4)CC3)cc2)C(C)(C)C1Oc1ccc(C#N)c(Cl)c1` (centres unmarked) [Example 35, N-((1r,3r)-3-(3-chloro-4-cyanophenoxy)-2,2,4,4-tetramethylcyclobutyl)-4-(4-(3-((1-(1-(3-(2,6-dioxopiperidin-3-yl)-4-oxo-3,4-dihydrobenzo[d][1,2,3]triazin-6-yl)piperidine-4-carbonyl)piperidin-4-yl)oxy)propyl)piperazin-1-yl)benzamide]: the “Degradation (1 μM treated in LNCaP, % AR remaining)” value in data set [1] was 6.4%. The half-maximal cytotoxic concentration (CC50) in data set [3] (setting [4]) was 0.0525 µM.

Consider `CC1(C)[C@H](NC(=O)c2ccc(N3CCC(CN4CCN(C(=O)C5CCN(c6ccc7nnn(C8CCC(=O)NC8=O)c(=O)c7c6)CC5)CC4)CC3)cc2)C(C)(C)[C@H]1Oc1ccc(C#N)c(Cl)c1` (some centres unmarked) [Example 49, N-((1r,3r)-3-(3-chloro-4-cyanophenoxy)-2,2,4,4-tetramethylcyclobutyl)-4-(4-((4-(1-(3-(2,6-dioxopiperidin-3-yl)-4-oxo-3,4-dihydrobenzo[d][1,2,3]triazin-6-yl)piperidine-4-carbonyl)piperazin-1-yl)methyl)piperidin-1-yl)benzamide], for which the remaining activity at 1 µM in data set [1] was 8.6%. For the same compound, the CC50 in data set [3] (setting [5]) turned out to be 0.0678 µM.
